Data taken from patent US6875761B2 (Eisai Co., Ltd., priority 1997, dated 2005).
Structures can show the parent of a compound that is named as a salt.

Row | SMILES | melting point
1 | CCN1CCN(c2nc(-c3ccc(CCCO)nc3)cc3ccsc23)CC1 (as salt: hydrochloride) [Example 429, 7-(4-ethylpiperazin-1yl)-5-[2-(3-hydroxypropyl)pyridin-5-yl]thieno[2,3-c]pyridine hydrochloride] | 204 to 205 °C
2 | CCN1CCN(c2nc(/C=C/c3cccc(OCCO)c3)cc3ccsc23)CC1 (as salt: hydrochloride) [Example 430, 7-(4-ethylpiperazin-1-yl)-5-[3-(2-hydroxyethoxy)styryl]thieno [2,3-c]pyridine hydrochloride] | 98 to 99 °C
3 | CCN1CCN(c2nc(/C=C/c3ccc(OCCO)cc3)cc3ccsc23)CC1 (as salt: hydrochloride) [Example 431, 7-(4-ethylpiperazin-1-yl)-5-[4-(2-hydroxyethoxy)styryl]thieno[2,3-c]pyridine hydrochloride] | 143 to 145 °C
4 | CCN1CCN(c2nc(-c3ccc(CCCO)cc3)cc3ccsc23)CC1 (as salt: hydrochloride) [Example 432, 7-(4-ethylpiperazin-1-yl)-5-[4-(3-hydroxypropyl)phenyl]thieno[2,3-c]pyridine hydrochloride] | 112 to 113 °C
5 | CCN1CCN(c2nc(-c3ccc(CCCO)c(OC)c3)cc3ccsc23)CC1 (as salt: hydrochloride) [Example 433, 7-(4-ethylpiperazin-1-yl)-5-[4-(3-hydroxypropyl)-3-methoxyphenyl]thieno[2,3-c]-pyridine hydrochloride] | 114 to 115 °C
6 | CCN1CCN(c2nc(-c3ccc(OCCCO)cc3)cc3ccsc23)CC1 (as salt: hydrochloride) [Example 434, 7-(4-ethylpiperazin-1-yl)-5-[4-(3-hydroxypropoxy)phenyl]thieno[2,3-c]pyridine dihydrochloride] | 126 to 127 °C
7 | CCN1CCN(c2nc(-c3ccc(OC[C@@H](C)O)cc3)cc3ccsc23)CC1 (as salt: hydrochloride) [Example 435, 7-(4-ethylpiperazin-1-yl)-5-[4-(2-hydroxypropoxy)phenyl]thieno[2,3-c]pyridine dihydrochloride] | 126 to 127 °C
8 | CCN1CCN(c2nc(-c3ccc(CC(C)O)cc3)cc3ccsc23)CC1 (stereo not drawn) (as salt: hydrochloride) [Example 436, 7-(4-ethylpiperazin-1-yl)-5-[4-(2-hydroxypropyl)phenyl]thieno[2,3-c]pyridine dihydrochloride] | 66 to 67 °C
9 | CCN1CCN(c2nc(-c3ccc(O[C@@H](C)CO)cc3)cc3ccsc23)CC1 (as salt: hydrochloride) [Example 438, 7-(4-ethylpiperazin-1-yl)-5-[4-(1-methyl-2-hydroxyethoxy)phenyl]thieno[2,3-c]pyridine dihydrochloride] | 126 to 127 °C
10 | CCN1CCN(c2nc(-c3ccc(CCC(C)(C)O)cc3)cc3ccsc23)CC1 (as salt: hydrochloride) [Example 439, 7-(4-ethylpiperazin-1-yl)-5-[4-(3-hydroxy-3-methylbutyl)phenyl]thieno[2,3-c]pyridine dihydrochloride] | 122 to 133.5 °C
11 | CCN1CCN(c2nc(-c3ccc(CCC(C)O)cc3)cc3ccsc23)CC1 (stereo not drawn) (as salt: hydrochloride) [Example 440, 7-(4-ethylpiperazin-1-yl)-5-[4-(3-hydroxybutyl)phenyl]thieno[2,3-c]pyridine dihydrochloride] | 110.5 to 112 °C
12 | CCN1CCN(c2nc(-c3ccc(CC(C)CO)cc3)cc3ccsc23)CC1 (stereo not drawn) (as salt: hydrochloride) [Example 441, 7-(4-ethylpiperazin-1-yl)-5-[4-(3-hydroxy-2-methylpropyl)phenyl]thieno[2,3-c]pyridine dihydrochloride] | 108 to 110 °C
13 | CCN1CCN(c2nc(-c3ccc(CC(C)(C)CO)cc3)cc3ccsc23)CC1 (as salt: hydrochloride) [Example 442, 7-(4-ethylpiperazin-1-yl)-5-[4-(3-hydroxy-2,2-dimethylpropyl)phenyl]thieno[2,3-c]pyridine dihydrochloride] | 113 to 114 °C
14 | CCN1CCN(c2nc(-c3ccc(C(C)(C)CCO)cc3)cc3ccsc23)CC1 (as salt: hydrochloride) [Example 443, 7-(4-ethylpiperazin-1-yl)-5-[4-(3-hydroxy-1,1-dimethylpropyl)phenyl]thieno[2,3-c]pyridine dihydrochloride] | 125.5 to 127.5 °C
15 | CCN1CCN(c2nc(-c3ccc(SC[C@@H](C)O)cc3)cc3ccsc23)CC1 (as salt: hydrochloride) [Example 444, 7-(4-ethylpiperazin-1-yl)-5-[4-(2-hydroxypropylthio)phenyl]thieno[2,3-c]pyridine dihydrochloride] | 98.5 to 99.5 °C
16 | CCN1CCN(c2nc(-c3ccc(S(C)(=O)=O)cc3)cc3ccsc23)CC1 (as salt: hydrochloride) [Example 445, 7-(4-ethylpiperazin-1-yl)-5-(4-methanesulfonylphenyl)thieno)[2,3-c]pyridine dihydrochloride] | 222.5 to 225 °C (dec.)
17 | CCCC(O)c1ccc(-c2cc3ccsc3c(N3CCN(CC)CC3)n2)cc1 (stereo not drawn) (as salt: hydrochloride) [Example 446, 7-(4-ethylpiperazin-1-yl)-5-[4-(1-hydroxybutyl)phenyl]thieno[2,3-c]pyridine dihydrochloride] | 112 to 114 °C
18 | CCNC(=O)c1ccc(-c2cc3ccsc3c(N3CCN(CC)CC3)n2)cc1 (as salt: hydrochloride) [Example 448, 7-(4-ethylpiperazin-1-yl)-5-[4-(N-ethylcarbamoyl)phenyl]thieno[2,3-c]pyridine dihydrochloride] | 142 to 143 °C
19 | CCCNC(=O)c1ccc(-c2cc3ccsc3c(N3CCN(CC)CC3)n2)cc1 (as salt: hydrochloride) [Example 449, 7-(4-ethylpiperazin-1-yl)-5-[4-(N-propylcarbamoyl)phenyl]thieno[2,3-c]pyridine dihydrochloride] | 136.5 to 138 °C
20 | CCN1CCN(c2nc(-c3ccc(S(=O)(=O)CC)cc3)cc3ccsc23)CC1 (as salt: hydrochloride) [Example 450, 7-(4-ethylpiperazin-1-yl)-5-(4-ethanesulfonylphenyl)thieno[2,3-c]pyridine dihydrochloride] | 230 to 232 °C (dec.)

Row | SMILES | melting point
21 | CCCCNC(=O)c1ccc(-c2cc3ccsc3c(N3CCN(CC)CC3)n2)cc1 (as salt: hydrochloride) [Example 452, 7-(4-ethylpiperazin-1-yl)-5-[4-(N-butylcarbamoyl)phenyl]thieno[2,3-c]pyridine dihydrochloride] | 127.5 to 128 °C
22 | CCN1CCN(c2nc(-c3ccc(C(=O)NC4CCCC4)cc3)cc3ccsc23)CC1 (as salt: hydrochloride) [Example 453, 7-(4-ethylpiperazin-1-yl)-5-[4-(N-cyclopentylcarbamoyl)phenyl]thieno[2,3-c]pyridine dihydrochloride] | 148 to 149 °C
23 | CCN1CCN(c2nc(-c3ccc4c(c3)CC(C)(CO)O4)cc3ccsc23)CC1 (stereo not drawn) (as salt: hydrochloride) [Example 456, dihydrochloride] | 138 to 140 °C (dec.)
24 | CCN1CCN(c2nc(-c3ccc(C(O)C4CCCCC4)cc3)cc3ccsc23)CC1 (stereo not drawn) (as salt: hydrochloride) [Example 457, 7-(4-Ethylpiperazin-1-yl)-5-[4-(cyclohexylhydroxymethyl)phenyl]thieno[2,3-c]pyridine dihydrochloride] | 127.5 to 129 °C
25 | CCN1CCN(c2nc(-c3ccc(C(O)C4CCCC4)cc3)cc3ccsc23)CC1 (stereo not drawn) (as salt: hydrochloride) [Example 458, 7-(4-ethylpiperazin-1-yl)-5-[4-(cyclopentylhydroxymethyl)phenyl]thieno[2,3-c]pyridine dihydrochloride] | 128 to 129 °C
26 | CCN1CCN(c2nc(-c3ccc(OC)cc3)cc3ccsc23)CC1 (as salt: hydrochloride) [Example 459, 7-(4-ethylpiperazin-1-yl)-5-(4-methoxyphenyl)thieno[2,3-c]pyridine dihydrochloride] | 113 to 115 °C
27 | CCN1CCN(c2nc(-c3ccc(OCCCO)cc3)cc3sccc23)CC1 (as salt: hydrochloride) [Example 462, 4-(4-ethylpiperazin-1-yl)-6-[4-(3-hydroxypropoxy)phenyl]thieno[3,2-c]pyridine dihydrochloride] | 102 to 104 °C
28 | CCN1CCN(c2nc(-c3ccc(CCCO)cc3)cc3sccc23)CC1 (as salt: hydrochloride) [Example 465, 4-(4-ethylpiperazin-1-yl)-6-[4-(3-hydroxypropy)phenyl]thieno[3,2-c]pyridine dihydrochloride] | 125.5 to 126.5 °C
29 | CCN1CCN(c2nc(-c3ccc(OC)cc3)cc3ccoc23)CC1 (as salt: hydrochloride) [Example 467, 7-(4-ethylpiperazin-1-yl)-5-(4-methoxyphenyl)furo[2,3-c]pyridine dihydrochloride] | 127 to 128 °C
30 | CCN1CCN(c2nc(C(O)c3ccccc3OC)cc3ccccc23)CC1 (stereo not drawn) (as salt: oxalate) | 100 to 103 °C
31 | CCN1CCN(c2nc(C(C)(O)c3ccc(OC)cc3)cc3ccccc23)CC1 (stereo not drawn) (as salt: oxalate) | 179 to 181 °C
32 | CCN1CCN(c2nc(C3=CCCc4c(OC)cccc43)cc3ccccc23)CC1 (as salt: oxalate) | 136 to 139 °C
33 | CCN1CCN(c2nc(C3=CCCc4ccc(OC)cc43)cc3ccccc23)CC1 (as salt: oxalate) | 150 to 153 °C
34 | CCN1CCN(c2nc(C3CCCc4c(OC)cccc43)cc3ccccc23)CC1 (stereo not drawn) (as salt: oxalate) | 133 to 136 °C
35 | CCN1CCN(c2nc(C3CCCc4cc(OC)ccc43)cc3ccccc23)CC1 (stereo not drawn) (as salt: oxalate) | 170 to 173 °C
36 | CCN1CCN(c2nc(C3CCCc4ccc(OC)cc43)cc3ccccc23)CC1 (stereo not drawn) (as salt: oxalate) | 110 to 112 °C
37 | CCNS(=O)(=O)c1ccc(-c2cc3ccccc3c(N3CCN(CCO)CC3)n2)cc1 (as salt: oxalate) | 172 to 174 °C
38 | CCCS(=O)(=O)c1ccc(-c2cc3ccccc3c(N3CCN(CCO)CC3)n2)cc1 (as salt: oxalate) | 127 to 129 °C
39 | CCN1CCN(c2nc(-c3ccc(OC)cc3)cc3occc23)CC1 (as salt: oxalate) | 170 to 172 °C (dec.)
